Experimental data reported in ChEMBL document CHEMBL6092159, “Design, synthesis, and biological evaluation of novel iNOS inhibitors as potent neuroprotective agents for ischemic stroke” (Eur J Med Chem, 2024).
Converted amounts (≈) assume the structure as drawn. The source made the active and inactive calls. The calls are words filed in the database; no cut-off is given here.

Legend:
SH-SY5Y [1] = assay: Neuroprotective effect in human SH-SY5Y cells assessed as reduction in OGD/R-induced damage by measuring increase in cell viability at 10 uM incubated for 3 hrs followed by washout cells cultured in glucose and FBS-free medium measured after 24 hrs by CCK8 assay; assay type: functional, cell-based
[2] = target: Nitric oxide synthase, inducible (Homo sapiens, UniProt P35228); assay: Inhibition of iNOS (unknown origin) assessed as nitric oxide production at 1 uM by hemoglobin capture assay
Chain of Nitric oxide synthase, inducible (P35228 whole entry): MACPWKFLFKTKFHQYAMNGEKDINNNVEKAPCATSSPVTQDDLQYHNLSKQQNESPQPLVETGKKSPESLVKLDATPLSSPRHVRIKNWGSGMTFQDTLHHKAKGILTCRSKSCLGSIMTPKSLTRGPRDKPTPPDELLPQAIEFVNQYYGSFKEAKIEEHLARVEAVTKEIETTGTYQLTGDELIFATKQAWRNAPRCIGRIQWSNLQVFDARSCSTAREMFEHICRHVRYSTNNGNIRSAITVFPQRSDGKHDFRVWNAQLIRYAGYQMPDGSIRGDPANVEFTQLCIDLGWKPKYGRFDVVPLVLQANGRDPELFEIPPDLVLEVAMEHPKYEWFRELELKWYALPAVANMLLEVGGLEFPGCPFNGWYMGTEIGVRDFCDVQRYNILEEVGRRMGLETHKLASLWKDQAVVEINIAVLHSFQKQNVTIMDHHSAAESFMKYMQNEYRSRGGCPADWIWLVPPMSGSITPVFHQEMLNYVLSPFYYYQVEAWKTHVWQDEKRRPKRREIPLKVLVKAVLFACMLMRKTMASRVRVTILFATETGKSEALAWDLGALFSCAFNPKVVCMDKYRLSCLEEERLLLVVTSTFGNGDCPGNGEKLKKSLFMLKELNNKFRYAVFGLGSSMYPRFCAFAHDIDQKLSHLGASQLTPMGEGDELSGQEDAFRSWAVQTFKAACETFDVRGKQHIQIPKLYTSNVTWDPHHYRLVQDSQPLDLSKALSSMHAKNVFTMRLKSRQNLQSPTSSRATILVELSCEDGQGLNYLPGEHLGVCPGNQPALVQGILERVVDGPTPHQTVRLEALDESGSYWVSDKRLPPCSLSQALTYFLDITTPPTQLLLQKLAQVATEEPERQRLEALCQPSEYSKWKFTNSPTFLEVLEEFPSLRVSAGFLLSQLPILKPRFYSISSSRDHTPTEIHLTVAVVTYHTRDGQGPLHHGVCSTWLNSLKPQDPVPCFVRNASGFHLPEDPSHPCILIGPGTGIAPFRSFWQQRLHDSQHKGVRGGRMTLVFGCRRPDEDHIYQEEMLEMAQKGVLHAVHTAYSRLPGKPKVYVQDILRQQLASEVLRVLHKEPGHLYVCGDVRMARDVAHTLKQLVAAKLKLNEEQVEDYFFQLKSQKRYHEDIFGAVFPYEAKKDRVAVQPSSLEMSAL

[3] = Tmax in Sprague-Dawley rat at 10 mg/kg, iv measured after 24 hrs by LC-MS/MS analysis; assay type: ADME, organism-based; conditions: in vivo
[4] = Apparent volume of distribution in Sprague-Dawley rat at 10 mg/kg, iv measured after 24 hrs by LC-MS/MS analysis; assay type: ADME, organism-based; conditions: in vivo, read-out: Vz
[5] = Clearance in Sprague-Dawley rat at 10 mg/kg, iv measured after 24 hrs by LC-MS/MS analysis; assay type: ADME, organism-based; conditions: in vivo
[6] = MRT (0 to t) in Sprague-Dawley rat at 10 mg/kg, iv measured after 24 hrs by LC-MS/MS analysis; assay type: ADME, organism-based; conditions: in vivo
[7] = MRT (0 to infinity) in Sprague-Dawley rat at 10 mg/kg, iv measured after 24 hrs by LC-MS/MS analysis; assay type: ADME, organism-based; conditions: in vivo
SH-SY5Y [8] = assay: Antioxidant activity in human SH-SY5Y cells assessed as reduction in OGD/R-induced ROS level at 1 uM incubated for 3 hrs followed by washout cells cultured in glucose and FBS-free medium measured after 24 hrs by DCFH-DA probe based fluorescence microscopy assay; assay type: functional, cell-based
SH-SY5Y [9] = assay: Antioxidant activity in human SH-SY5Y cells assessed as reduction in OGD/R-induced LDH level at 1 uM incubated for 3 hrs followed by washout cells cultured in glucose and FBS-free medium measured after 24 hrs by colorimetric assay; assay type: functional, cell-based
SH-SY5Y [10] = assay: […] effect in human SH-SY5Y cells assessed as reduction in OGD/R-induced caspase-3 activity using substrate GreenNuc Caspase-3 Substrate is a peptide DEVD coupled with a DNA green fluorescent dye at 1 uM incubated for 3 hrs followed by washout cells cultured in glucose and FBS-free medium measured after 24 hrs by […] assay; assay type: functional, cell-based
[11] = target: T1, Nitric oxide synthase 3 (Homo sapiens) (UniProt P29474); assay: Inhibition of eNOS (unknown origin) assessed as nitric oxide production 1 uM by hemoglobin capture assay
T1 sequence (whole entry): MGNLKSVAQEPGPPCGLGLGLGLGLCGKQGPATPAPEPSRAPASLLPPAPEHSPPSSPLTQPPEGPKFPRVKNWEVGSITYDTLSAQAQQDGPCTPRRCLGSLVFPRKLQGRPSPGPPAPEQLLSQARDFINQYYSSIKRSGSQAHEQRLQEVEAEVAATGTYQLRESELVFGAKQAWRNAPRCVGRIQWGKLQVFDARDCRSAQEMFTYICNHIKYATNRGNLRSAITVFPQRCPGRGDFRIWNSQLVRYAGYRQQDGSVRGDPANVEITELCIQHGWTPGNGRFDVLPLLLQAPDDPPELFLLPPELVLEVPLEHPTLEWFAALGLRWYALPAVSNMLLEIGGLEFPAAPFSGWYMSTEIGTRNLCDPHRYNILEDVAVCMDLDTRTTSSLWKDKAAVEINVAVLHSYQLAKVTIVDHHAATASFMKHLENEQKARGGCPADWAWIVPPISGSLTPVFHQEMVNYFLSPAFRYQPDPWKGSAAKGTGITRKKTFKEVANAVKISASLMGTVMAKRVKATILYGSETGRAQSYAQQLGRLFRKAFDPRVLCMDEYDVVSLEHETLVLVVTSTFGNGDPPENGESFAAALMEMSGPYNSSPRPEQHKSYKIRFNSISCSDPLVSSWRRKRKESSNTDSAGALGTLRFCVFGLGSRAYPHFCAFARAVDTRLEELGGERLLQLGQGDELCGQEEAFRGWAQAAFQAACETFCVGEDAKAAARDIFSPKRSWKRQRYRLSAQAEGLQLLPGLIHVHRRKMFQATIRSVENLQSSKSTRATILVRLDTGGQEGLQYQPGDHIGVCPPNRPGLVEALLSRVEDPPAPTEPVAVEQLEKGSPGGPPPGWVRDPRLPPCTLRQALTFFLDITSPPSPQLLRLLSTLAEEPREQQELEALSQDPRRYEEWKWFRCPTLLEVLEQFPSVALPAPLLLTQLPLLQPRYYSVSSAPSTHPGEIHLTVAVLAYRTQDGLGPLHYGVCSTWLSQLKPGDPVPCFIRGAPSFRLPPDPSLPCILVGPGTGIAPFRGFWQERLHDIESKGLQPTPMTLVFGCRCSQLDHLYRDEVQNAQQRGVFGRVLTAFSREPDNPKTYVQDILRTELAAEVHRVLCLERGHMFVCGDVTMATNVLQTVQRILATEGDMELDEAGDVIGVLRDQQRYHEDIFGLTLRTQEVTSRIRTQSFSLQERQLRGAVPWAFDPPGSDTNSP

[12] = Ratio of drug concentration male Sprague-Dawley rat brain to blood at 3.4 mg/kg, iv measured after 24 hrs by LC-MS/MS analysis; assay type: ADME, organism-based
Rattus norvegicus [13] = assay: Anti-cerebral ischemia activity in rat tMCAO (transient middle cerebral artery occlusion) model assessed as reduction in cerebral infarct area at 6.58 mg/kg, iv treated after 2 hrs ischemia followed by reperfusion measured after 24 hrs of post-reperfusion by single-dose experiment; assay type: functional, organism-based; conditions: time 26.0 hrs
Rattus norvegicus [14] = assay: Anti-cerebral ischemia activity in rat tMCAO (transient middle cerebral artery occlusion) model assessed as reduction in cerebral infarct area in presence of NBP at 6.58 mg/kg, iv treated after 2 hrs ischemia followed by reperfusion measured after 24 hrs of post-reperfusion by single-dose experiment; assay type: functional, organism-based; conditions: time 26.0 hrs
[15] = Half life in Sprague-Dawley rat at 10 mg/kg, iv measured after 24 hrs by LC-MS/MS analysis; assay type: ADME, organism-based; conditions: in vivo
SH-SY5Y [16] = assay: Neuroprotective effect in human SH-SY5Y cells assessed as reduction in OGD/R-induced damage by measuring increase in cell viability at 1 uM incubated for 3 hrs followed by washout cells cultured in glucose and FBS-free medium measured after 24 hrs by CCK8 assay; assay type: functional, cell-based
BV-2 = assay: Neuroprotective effect in mouse BV-2 cells assessed as reduction in OGD/R-induced damage by measuring increase in cell viability at 10 uM incubated for 3 hrs followed by washout cells cultured in glucose and FBS-free medium measured after 24 hrs by CCK8 assay; assay type: functional, cell-based
[17] = target: Nitric oxide synthase 1 (Homo sapiens) (UniProt P29475); assay: Inhibition of nNOS (unknown origin) assessed as nitric oxide production 1 uM by hemoglobin capture assay
Chain of Nitric oxide synthase 1 (Homo sapiens) (P29475 whole entry): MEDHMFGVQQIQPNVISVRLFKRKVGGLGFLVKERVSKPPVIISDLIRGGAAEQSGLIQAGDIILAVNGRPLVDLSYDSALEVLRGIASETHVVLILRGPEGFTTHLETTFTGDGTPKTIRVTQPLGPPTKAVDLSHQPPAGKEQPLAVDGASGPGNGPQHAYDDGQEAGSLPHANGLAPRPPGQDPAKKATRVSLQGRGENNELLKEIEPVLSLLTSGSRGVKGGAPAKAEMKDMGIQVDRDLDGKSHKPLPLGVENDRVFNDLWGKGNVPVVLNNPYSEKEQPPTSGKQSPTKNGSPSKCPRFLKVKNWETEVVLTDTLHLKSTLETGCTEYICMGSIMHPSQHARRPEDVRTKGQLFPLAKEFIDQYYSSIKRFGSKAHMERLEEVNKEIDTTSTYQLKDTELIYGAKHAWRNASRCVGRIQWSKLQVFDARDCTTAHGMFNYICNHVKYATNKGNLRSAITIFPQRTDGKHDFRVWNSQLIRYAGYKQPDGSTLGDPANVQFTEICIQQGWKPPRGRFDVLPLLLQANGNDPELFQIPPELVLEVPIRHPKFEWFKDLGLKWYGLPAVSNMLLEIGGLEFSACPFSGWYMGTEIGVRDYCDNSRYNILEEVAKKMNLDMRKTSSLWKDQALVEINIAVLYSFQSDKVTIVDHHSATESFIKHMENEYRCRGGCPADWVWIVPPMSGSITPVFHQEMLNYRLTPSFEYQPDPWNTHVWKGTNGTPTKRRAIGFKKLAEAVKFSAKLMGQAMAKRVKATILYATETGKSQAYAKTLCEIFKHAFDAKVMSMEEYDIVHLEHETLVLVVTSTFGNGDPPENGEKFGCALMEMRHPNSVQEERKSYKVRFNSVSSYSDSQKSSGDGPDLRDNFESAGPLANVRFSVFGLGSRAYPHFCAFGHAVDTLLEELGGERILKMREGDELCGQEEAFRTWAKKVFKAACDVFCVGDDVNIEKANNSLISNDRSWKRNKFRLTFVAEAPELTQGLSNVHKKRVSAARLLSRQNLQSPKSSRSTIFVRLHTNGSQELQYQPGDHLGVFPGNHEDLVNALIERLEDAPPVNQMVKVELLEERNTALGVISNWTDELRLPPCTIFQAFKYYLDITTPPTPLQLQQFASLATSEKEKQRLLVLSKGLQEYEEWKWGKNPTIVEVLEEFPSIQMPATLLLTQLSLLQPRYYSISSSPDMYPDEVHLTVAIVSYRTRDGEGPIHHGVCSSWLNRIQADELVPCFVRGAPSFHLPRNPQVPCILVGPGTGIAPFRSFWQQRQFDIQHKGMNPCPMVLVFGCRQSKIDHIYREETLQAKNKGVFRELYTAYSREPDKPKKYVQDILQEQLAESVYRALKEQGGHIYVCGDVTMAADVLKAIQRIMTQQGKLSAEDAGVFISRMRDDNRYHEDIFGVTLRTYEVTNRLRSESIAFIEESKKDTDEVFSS

[18] = Stability in rat plasma assessed as half life; assay type: ADME, cell-free
[19] = Metabolic stability in rat liver microsomes assessed as half life; assay type: ADME, Microsome
[20] = Solubility of the compound by HPLC based dissolution test; assay type: physicochemical
[21] = Ratio of drug concentration male Sprague-Dawley rat brain to blood at 5 mg/kg, iv measured after 24 hrs by LC-MS/MS analysis; assay type: ADME, organism-based
Rattus norvegicus [22] = assay: (§1) Anti-cerebral ischemia activity in rat tMCAO (transient middle cerebral artery occlusion) model assessed as reduction in cerebral infarct area at 9.61 mg/kg, iv treated after 2 hrs ischemia followed by reperfusion measured after 24 hrs of post-reperfusion by single-dose experiment; assay type: functional, organism-based; conditions: time 26.0 hrs
Rattus norvegicus [23] = assay: as §1, with “24 to 72” for “24”, “TTC staining based multiple-dose” for “single-dose”; assay type: functional, organism-based; conditions: time 26-74 hrs
Rattus norvegicus [24] = assay: as §1, with “measuring modified neurological severity score (mNSS) test based multiple-dose” for “single-dose”, “experiment relative to MCAO group” for “experiment”; assay type: functional, organism-based
Rattus norvegicus [25] = assay: as §1, with “measuring turn left counts test based multiple-dose” for “single-dose”, “experiment relative to MCAO group” for “experiment”; assay type: functional, organism-based
Rattus norvegicus [26] = assay: as §1, with “72” for “24”, “measuring modified neurological severity score (mNSS) test based multiple-dose” for “single-dose”, “experiment relative to MCAO group” for “experiment”; assay type: functional, organism-based
Rattus norvegicus [27] = assay: as §1, with “72” for “24”, “measuring turn left counts test based multiple-dose” for “single-dose”, “experiment relative to MCAO group” for “experiment”; assay type: functional, organism-based
Rattus norvegicus [28] = assay: (§2) Anti-cerebral ischemia activity in rat tMCAO (transient middle cerebral artery occlusion) model assessed as reduction in cerebral infarct area at 5 mg/kg, iv treated after 2 hrs ischemia followed by reperfusion measured after 24 hrs of post-reperfusion by single-dose experiment; assay type: functional, organism-based; conditions: time 26.0 hrs
Rattus norvegicus [29] = assay: Anti-cerebral ischemia activity in rat tMCAO (transient middle cerebral artery occlusion) model assessed as reduction in cerebral infarct area in presence of 1400W at 5 mg/kg, iv treated after 2 hrs ischemia followed by reperfusion measured after 24 hrs of post-reperfusion by single-dose experiment; assay type: functional, organism-based; conditions: time 26.0 hrs
Rattus norvegicus [30] = assay: as §2, with “24 to 72” for “24”, “TTC staining based multiple-dose” for “single-dose”; assay type: functional, organism-based; conditions: time 26-74 hrs
Rattus norvegicus [31] = assay: Anti-cerebral ischemia activity in rat tMCAO (transient middle cerebral artery occlusion) model assessed as reduction in cerebral infarct area at 9.98 mg/kg, iv treated after 2 hrs ischemia followed by reperfusion measured after 24 hrs of post-reperfusion by single-dose experiment; assay type: functional, organism-based; conditions: time 26.0 hrs

SMILES	Activity (SH-SY5Y [1])	IC50 [2] [nM]	Tmax [3] [min]	Vd [4] [L/kg]	CL [5] [mL/min/kg]	MRT last at 24 h [6] [h]	MRT inf [7] [h]	Activity (SH-SY5Y [8])	Activity (SH-SY5Y [9])	Activity (SH-SY5Y [10])	Activity [11]	Activity (SH-SY5Y [16])	Activity (BV-2)	solubility [20] [mg/mL]	also measured
CCCCC1OC(=O)c2cc(NCc3cccc(NC(C)=N)c3)ccc21 (centres undefined)	Active	275	–	–	–	–	–	–	–	–	–	–	–	–	–
CC(=N)NCc1cccc(CN)c1 [1400W]	–	–	4.98	21.7	90.12	0.96	1.11	Active	Active	Active	inactive	–	–	–	BBR [12]: 10.96%; Activity (Rattus norvegicus [13]): Active; Activity (Rattus norvegicus [14]): Active
CCCCC1OC(=O)c2cc(NCc3cccc(CNC(C)=N)c3)ccc21 (centres undefined)	Active	171	4.98	32.4	71.33	1.62	1.91	Active	Active	Active	inactive	Active; Compound Demonstrating Comparable Protective Effects To Nbp And 1400W	Active; Compound Exhibit Similar Protective Effects As Nbp And 1400W	30 (≈ 82.1 mM)	half-life [15]: 5.21 h; inhibition [17]: 3.64%; half-life [18]: 23 h; half-life [19]: 2 h; BBR [21]: 27.36%; Activity (Rattus norvegicus [22]): Active; Activity (Rattus norvegicus [23]): Active; Efficacy Of Compound Superior Than Nbp Group; Activity (Rattus norvegicus [24]): Active; Activity (Rattus norvegicus [25]): Active; Activity (Rattus norvegicus [26]): Active; Activity (Rattus norvegicus [27]): Active
CCCCC1OC(=O)c2ccccc21 (racemic) [RAC-3-N-BUTYLPHTHALIDE]	–	–	–	–	–	–	–	Active	Active	Active	–	–	–	0.25 (≈ 1.31 mM)	Activity (Rattus norvegicus [28]): Active; Activity (Rattus norvegicus [29]): Active; Activity (Rattus norvegicus [30]): Active
CCCCC1OC(=O)c2cc(NC(=O)c3cccc(CNC(C)=N)c3)ccc21 (centres undefined)	Active	245	–	–	–	–	–	–	Active	–	–	Active; Compound Demonstrating Comparable Protective Effects To Nbp And 1400W	Active; Compound Exhibit Similar Protective Effects As Nbp And 1400W	–	Activity (Rattus norvegicus [31]): Active
CCCCC1OC(=O)c2cc(NC(=O)c3cccc(NC(C)=N)c3)ccc21 (centres undefined)	Active	474	–	–	–	–	–	–	–	–	–	–	–	–	–
